Measurements: ChEMBL document CHEMBL1125481, “N-[4-[[(3,4-dihydro-4-oxo-1,2,3-benzotriazin-6-yl)methyl]amino]benzoyl]-L-glutamic acid, a novel A-ring analogue of 2-desamino-5,8-dideazafolic acid” (J Med Chem, 1992)
Values belong to the molecule of their own block, whether it stands above or below them.

Columns and labels:
L1210 [1] = test: Growth inhibitory activity on mouse L1210 cell culture; assay type: functional, cell-based
Thymidylate synthase = Thymidylate synthase (Mus musculus, UniProt P07607); test: Compound was tested for the inhibition of recombinant mouse thymidylate synthase, competitive with 5,10-methylenetetrahydrofolate as variable substrate
L1210 [2] = test: Growth inhibitory activity on L1210 cell culture in the presence of 5.6 uM thymidine(dThd); assay type: functional, cell-based; conditions: Mus musculus
L1210 [3] = test: Growth inhibitory activity on L1210 cell culture in the presence of 32 uM hypoxanthine (Hx); assay type: functional, cell-based; conditions: Mus musculus
[4] = target: Thymidylate synthase (Mus musculus) (UniProt P07607); test: Binding affinity towards thymidylate synthase (TS)
[5] = substrate: O=C(O)CCC(NC(=O)c1ccc(NCc2ccc3ncnc(O)c3c2)cc1)C(=O)O; test: (§1) Kinetic characteristic of compound for mouse liver FPGS(in vitro)
[6] = substrate: Nc1nc(O)c2cc(CNc3ccc(C(=O)NC(CCC(=O)O)C(=O)O)cc3)ccc2n1; test: as §1
[7] = substrate: O=C(O)CCC(NC(=O)c1ccc(NCc2ccc3nnnc(O)c3c2)cc1)C(=O)O

Sequence of Thymidylate synthase (Mus musculus) (P07607 whole entry, looked up): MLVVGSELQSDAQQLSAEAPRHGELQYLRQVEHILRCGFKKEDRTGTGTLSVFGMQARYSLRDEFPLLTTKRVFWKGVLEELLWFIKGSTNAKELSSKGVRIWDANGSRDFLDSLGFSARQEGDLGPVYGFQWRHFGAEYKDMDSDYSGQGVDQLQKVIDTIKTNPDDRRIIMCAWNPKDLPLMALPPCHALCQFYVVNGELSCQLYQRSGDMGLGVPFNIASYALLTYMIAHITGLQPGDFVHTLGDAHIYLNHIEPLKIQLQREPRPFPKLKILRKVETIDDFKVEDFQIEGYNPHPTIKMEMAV
Sequence of Thymidylate synthase (P07607 whole entry): as the sequence (P07607 whole entry, looked up) above

IC50 (L1210 [1]): 2700 nM
Molecule: Nc1nc(O)c2cc(CNc3ccc(C(=O)NC(CCC(=O)O)C(=O)O)cc3)ccc2n1 (stereo not given) [DIDEAZAFOLATE]

IC50 (L1210 [1]): 520 nM | Ki (Thymidylate synthase): 2300 nM | IC50 (L1210 [2]): 890 nM | IC50 (L1210 [3]): 970 nM | Ki [4]: 2300 nM
Molecule: O=C(O)CCC(NC(=O)c1ccc(NCc2ccc3nnnc(O)c3c2)cc1)C(=O)O (stereo not given)

More lines, now with the values behind:

Molecule: O=C(O)CCC(NC(=O)c1ccc(NCc2ccc3ncnc(O)c3c2)cc1)C(=O)O (stereo not given)
IC50 (L1210 [1]): 430 nM

B1: Folylpolyglutamate synthase, mitochondrial (Mus musculus), P48760 (protein)
chain: MSWARSRLCSTLSLAAVSARGATTEGAARRGMSAWPAPQEPGMEYQDAVRTLNTLQTNASYLEQVKRQRSDPQAQLEAMEMYLARSGLQVEDLNRLNIIHVTGTKGKGSTCAFTERILRNYGLKTGFFSSPHMVQVRERIRINGKPISPELFTKHFWCLYNQLEEFKDDSHVSMPSYFRFLTLMAFHVFLQEKVDLAVVEVGIGGAFDCTNIIRKPVVCGVSSLGIDHTSLLGDTVEKIAWQKGGIFKPGVPAFTVVQPEGPLAVLRDRAQQIGCPLYLCPPLEALEEVGLPLSLGLEGAHQRSNAALALQLAHCWLERQDHQDIQELKVSRPSIRWQLPLAPVFRPTPHMRRGLRDTVWPGRTQILQRGPLTWYLDGAHTTSSVQACVHWYRQSLERSKRTDGGSEVHILLFNSTGDRDSAALLKLLQPCQFDYAVFCPNVTEVSSIGNADQQNFTVTLDQVLLRCLQHQQHWNGLAEKQASSNLWSSCGPDPAGPGSLLLAPHPPQPTRTSSLVFSCISHALLWISQGRDPIFQPQSLPRNLLNHPTANSGASILREAAAIHVLVTGSLHLVGGVLKLLDPSMSQ
Km [5]: 4.8 µM | Km [6]: 6.4 µM | Km [7]: 28 µM
